# Where two headings read alike, the source gives them in different places.
# What was measured:
# [1] = test system: whole sheep blood; conditions: liquid component added to blood, versus control
# Experimental: (§1) Coagulation time of fresh whole blood can be determined with the Lee-White test by visually observing clot formation. Activation of the intrinsic coagulation pathway can be determined by measuring the activated partial thromboplastin time (APTT) as for example, shown in the FIGURE. In this test, the time to formation of a fibrin clot in re-calcified citrated plasma is measured using a coagulation analyzer instrument.
# [2] = test system: human plasma; conditions: for effect on the clotting time of human plasma: APTT test; for APTT Average: average of subjects
# Experimental: as §1
# Clotting times of plasma samples were measured using the Amelung KC 4 A™ micro coagulation analyzer (Sigma Diagnostics, Germany). A cuvette was placed into a rotating well of the analyzer and a small stainless steel ball was dispensed into the cuvette. 100 μL of Pathromtin SL reagent were dispensed into the cuvette and then 100 μL of human plasma were added. For trials with the solution, 10 μL of water or of a solution dilution were added. After 2 minutes of incubation, 100 μL of CaCl2 were dispensed into each cuvette. The analyzer timer was started immediately and clotting time was recorded when the timer stopped.
# On each day, control plasma N (normal) and control plasma P (abnormal/prolonged) were tested for quality control. At least two identical samples (duplicates) were tested simultaneously for each trial. The means and percent differences between duplicates were calculated. If the difference between duplicates was twenty percent or less, that trial's data was used for further analysis.
# [3] = test system: whole human blood
# [4] = listed as diammonium phosphate solution
smiles,measurement,setting,value
"N.N.O=P(O)(O)O [Sample A liquid, diammonium hydrogen-phosphate]",effect on the Lee-White clotting time of whole sheep blood,[1]; listed as Sample A liquid component,prolonged
same,effect on the Lee-White clotting time of whole sheep blood,[1]; [4],delay and/or prevent clotting
same,effect on the clotting time of human plasma,[2]; listed as diammonium hydrogen-phosphate solution,prolongs the clotting time of human plasma
same,effect on the clotting time of human plasma,[2]; [4],delay and/or prevent clotting
same,APTT Average,[2]; NH4 Conc. 10 mM in the 310 μL total volume,42.7 s
same,Subject APTT,"[2]; NH4 Conc. 10 mM in the 310 μL total volume, subject 1",49.8 s
same,Subject APTT,"[2]; NH4 Conc. 10 mM in the 310 μL total volume, subject 2",36.5 s
same,Subject APTT,"[2]; NH4 Conc. 10 mM in the 310 μL total volume, subject 3",42.6 s
same,Subject APTT,"[2]; NH4 Conc. 10 mM in the 310 μL total volume, subject 4",42.9 s
same,Subject APTT,"[2]; NH4 Conc. 10 mM in the 310 μL total volume, subject 5",47.9 s
same,Subject APTT,"[2]; NH4 Conc. 10 mM in the 310 μL total volume, subject 6",39.0 s
same,Subject APTT,"[2]; NH4 Conc. 10 mM in the 310 μL total volume, subject 7",32.5 s
same,Subject APTT,"[2]; NH4 Conc. 10 mM in the 310 μL total volume, subject 8",50.9 s
same,APTT Average,[2]; NH4 Conc. 20 mM in the 310 μL total volume,50.8 s
same,Subject APTT,"[2]; NH4 Conc. 20 mM in the 310 μL total volume, subject 1",64.5 s
same,Subject APTT,"[2]; NH4 Conc. 20 mM in the 310 μL total volume, subject 2",46.3 s
same,Subject APTT,"[2]; NH4 Conc. 20 mM in the 310 μL total volume, subject 4",47.3 s
same,Subject APTT,"[2]; NH4 Conc. 20 mM in the 310 μL total volume, subject 5",62.2 s
same,Subject APTT,"[2]; NH4 Conc. 20 mM in the 310 μL total volume, subject 6",38.0 s
same,Subject APTT,"[2]; NH4 Conc. 20 mM in the 310 μL total volume, subject 7",37.7 s
same,Subject APTT,"[2]; NH4 Conc. 20 mM in the 310 μL total volume, subject 8",59.7 s
same,APTT Average,[2]; NH4 Conc. 30 mM in the 310 μL total volume,67.6 s
same,Subject APTT,"[2]; NH4 Conc. 30 mM in the 310 μL total volume, subject 1",79.8 s
same,Subject APTT,"[2]; NH4 Conc. 30 mM in the 310 μL total volume, subject 2",52.8 s
same,Subject APTT,"[2]; NH4 Conc. 30 mM in the 310 μL total volume, subject 3",64.2 s
same,Subject APTT,"[2]; NH4 Conc. 30 mM in the 310 μL total volume, subject 4",64.6 s
same,Subject APTT,"[2]; NH4 Conc. 30 mM in the 310 μL total volume, subject 5",86.9 s
same,Subject APTT,"[2]; NH4 Conc. 30 mM in the 310 μL total volume, subject 6",58.5 s
same,Subject APTT,"[2]; NH4 Conc. 30 mM in the 310 μL total volume, subject 7",57.5 s
same,Subject APTT,"[2]; NH4 Conc. 30 mM in the 310 μL total volume, subject 8",76.4 s
same,APTT Average,[2]; NH4 Conc. 40 mM in the 310 μL total volume,185.2 s
same,Subject APTT,"[2]; NH4 Conc. 40 mM in the 310 μL total volume, subject 1",236.5 s
same,Subject APTT,"[2]; NH4 Conc. 40 mM in the 310 μL total volume, subject 4",154.4 s
same,Subject APTT,"[2]; NH4 Conc. 40 mM in the 310 μL total volume, subject 5",186.2 s
same,Subject APTT,"[2]; NH4 Conc. 40 mM in the 310 μL total volume, subject 6",111.9 s
same,Subject APTT,"[2]; NH4 Conc. 40 mM in the 310 μL total volume, subject 7",166.2 s
same,Subject APTT,"[2]; NH4 Conc. 40 mM in the 310 μL total volume, subject 8",255.8 s
same,effect on clotting in whole human blood,[3],delay and/or prevent clotting

# From patent US20080075788A1, “DIAMMONIUM PHOSPHATE AND OTHER AMMONIUM SALTS AND THEIR USE IN PREVENTING CLOTTING” (priority 2006, published 2008)
